Laboratory results published in PubChem BioAssay (NCI).
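1) Cells in 96-well plates. 2) Compound, 48 h, 5 concentrations. 3) Linear interpolation between surrounding doses. 4) Unreached endpoint = highest concentration. Abbreviation: GI50, concentration required for 50% inhibition of growth. TGI: concentration producing complete growth inhibition.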

Legend:
Assay in all cases: NCI anticancer screen, dose series, 48 h
[1] = system: SF-539 CNS
[2] = system: SF-268 CNS
[3] = system: SN12C renal
[4] = system: COLO 205 colon
[5] = system: SNB-75 CNS
[6] = system: NCI/ADR-RES ovarian
[7] = system: NCI-H522 lung
[8] = system: UACC-257 melanoma
[9] = system: ACHN renal
[10] = system: HOP-62 NSCLC

| SMILES | GI50 [1] [µM] | TGI [1] [µM] | GI50 [2] [µM] | TGI [2] [µM] | GI50 [3] [µM] | TGI [3] [µM] | GI50 [4] [µM] | TGI [4] [µM] | GI50 [5] [µM] | TGI [5] [µM] | GI50 [6] [µM] | TGI [6] [µM] | GI50 [7] [µM] | TGI [7] [µM] | GI50 [8] [µM] | TGI [8] [µM] | GI50 [9] [µM] | TGI [9] [µM] | GI50 [10] [µM] | TGI [10] [µM] |
| --- | --- | --- | --- | --- | --- | --- | --- | --- | --- | --- | --- | --- | --- | --- | --- | --- | --- | --- | --- | --- |
| CC1(C)N=C(N)N=C(N)N1c1ccc(OCC(=O)N2CCOCC2)c(Cl)c1 | 5.32 | > 100 | 0.759 | > 100 | 6.9 | > 100 | 8.8 | > 100 | 10.3 | > 100 | > 100 | > 100 | 2.24 | > 100 | > 100 | > 100 | > 100 | > 100 | 12.2 | > 100 |
| CC1CC(C)/C(=N/NC(N)=O)C(C(O)CC2CCC(=O)NC2=O)C1 (stereo not drawn) | 3.07 | 39.8 | 2.98 | 45.1 | 1.99 | > 100 | 3.7 | 51.5 | 4.26 | > 100 | 3.66 | > 100 | 1.7 | 18.1 | 3.48 | 50.4 | 1.32 | > 100 | 2.99 | > 100 |
| CC(C)(C)c1cn2cccc(C(=O)N3CCN(CC(=O)Nc4ccc(Cl)cc4C(=O)c4ccccc4Cl)CC3)c2n1 | 10 | 22.3 | 13 | 43.6 | 10.6 | 35.4 | 6.49 | 43.6 | 12.8 | 90.2 | 6.7 | > 100 | 12.7 | 52.3 | 3.51 | 23.5 | 6.62 | 61.4 | 15.4 | 32.3 |
| COc1cc(Nc2ncc3c(C)nc(-c4cccc(Oc5ccccc5)c4)n3n2)cc(OC)c1OC | 7.07 | > 25 | 6.6 | > 22.7 | 5.32 | > 21.6 | 7.68 | > 25 | 5.14 | > 25 | 6.36 | > 25 | 4.94 | > 17.9 | 10.4 | > 25 | 1.33 | 17.9 | 10.6 | > 25 |
| Cc1ccc(/C=C/C(=O)c2ccc(N)cc2)c(C)c1 | 2.39 | 5.45 | 1.88 | 3.7 | 1.95 | 4.2 | 2.43 | 6.07 | 2.01 | 7.45 | 6.65 | > 100 | 0.379 | 1.67 | 14.3 | 28.3 | 1.77 | 3.2 | 17 | 38 |
| N#Cc1c(NC(=O)c2cccc3ccccc23)sc2c1CCCC2 | 0.0274 | > 25 | 0.171 | > 25 | 0.157 | > 25 | 0.0723 | 0.193 | 0.0351 | > 25 | 0.0128 | 0.117 | 0.024 | 0.259 | – | > 25 | 0.34 | > 25 | 0.0825 | > 25 |
| O=c1oc2ccc(F)cc2c(=O)n1-c1ccc(Cl)cc1F | 0.564 | 6.79 | 0.879 | 11.7 | 0.495 | 6.92 | 2.14 | 4.87 | 0.375 | 2.65 | 1.18 | 9.31 | 0.363 | 4.5 | 0.66 | 4.54 | 0.7 | 11.8 | 1.57 | 6.53 |
| COc1cc(-n2cc(-c3ccc(F)cc3)[nH]c2=S)cc(OC)c1OC | 63.1 | > 100 | 32.8 | > 100 | > 100 | > 100 | > 100 | > 100 | 17.9 | 46.5 | > 100 | > 100 | > 100 | > 100 | > 100 | > 100 | > 100 | > 100 | > 100 | > 100 |
| COc1ccc2c(c1)C(=O)/C(=C/c1ccc([N+](=O)[O-])s1)O2 | 0.352 | 1.41 | 0.268 | 0.66 | 0.483 | 2.32 | 0.49 | 1.68 | 0.627 | 2.47 | 0.873 | > 100 | 0.195 | 0.395 | 0.819 | 3.11 | 0.263 | 0.722 | 1.07 | 3.47 |
| CO/N=C(\COc1ccc2c(c1)oc(=O)c1cc(OC)ccc12)c1ccc(F)cc1 | 23.5 | 63 | 29.9 | > 100 | 27.2 | > 100 | 59.6 | > 100 | 13.4 | 27.1 | 17.6 | 35.6 | 13 | 32.5 | 45.5 | > 100 | 16.8 | 32.1 | 16.4 | 34.1 |
| CS(=O)(=O)Nc1cccc(-c2ccc3c(NC(=O)C4CC4)n[nH]c3c2)c1 | 1.5 | > 25 | 2.78 | > 25 | 5.25 | > 25 | 1.81 | > 12.9 | 4.6 | > 25 | 6.45 | > 25 | 0.308 | – | > 25 | > 25 | 12.7 | > 25 | 1.16 | > 21.5 |
| CCCCCCCCCCCCCCCCOC(=O)c1c(C)[nH]c(/C=C2\N=C(c3ccc[nH]3)C=C2OC)c1C | 2.3 | 13.6 | 1.99 | 19.6 | 1.64 | 23.7 | 3.81 | > 100 | 2.47 | 7.17 | 0.735 | 19.9 | 5.69 | > 70.1 | 9.69 | > 100 | 1.65 | 14.9 | 2.89 | 12.8 |
| O=C(Nc1ccc(Cl)cc1)c1ccc([N+](=O)[O-])o1 | 2.22 | 4.9 | 2.98 | 11.8 | 1.68 | 4.12 | 1.75 | 3.18 | 1.63 | 5.38 | 2.55 | 11.4 | 0.642 | 1.76 | 1.97 | 5.25 | 1.95 | 4.07 | 1.49 | 3.27 |
| O=C(Nc1cccnc1)c1cccc([N+](=O)[O-])c1 | > 100 | > 100 | > 100 | > 100 | > 100 | > 100 | > 100 | > 100 | > 100 | > 100 | > 100 | > 100 | > 100 | > 100 | > 100 | > 100 | > 100 | > 100 | > 100 | > 100 |
| c1ccc2c(-c3nc4ccccc4[nH]3)cccc2c1 | 3.77 | 23.7 | 5.62 | > 100 | 5.03 | > 100 | 3.48 | 11.8 | 2.35 | 13.5 | 1.8 | > 100 | 2.19 | 5.54 | 3.87 | 84.4 | 7.97 | > 100 | 5.35 | 30.3 |
| O=C(NCC(=O)N1CC[C@H](NC2CCC(O)(c3ccc(-c4ncccn4)cn3)CC2)C1)c1cccc(C(F)(F)F)c1 (stereo partly drawn) | 96.5 | > 100 | > 100 | > 100 | > 100 | > 100 | 30.2 | > 100 | 20.2 | > 100 | > 100 | > 100 | > 100 | > 100 | 40.8 | > 100 | > 100 | > 100 | 95.1 | > 100 |
| COc1ccc(N(C)c2nc(Cl)nc3ccn(C)c23)cc1 | < 0.01 | > 100 | < 0.01 | > 100 | < 0.01 | > 100 | < 0.01 | < 0.01 | < 0.01 | > 100 | < 0.01 | > 100 | < 0.01 | < 0.01 | > 100 | > 100 | < 0.01 | > 100 | < 0.01 | > 100 |
